Several values for one entry are separate records, joined by “and”; a condition that tells them apart may be missing. Equal values may be shown once.
Experiments:
[1] = biological target: T1, Inhibitor of nuclear factor kappa-B kinase subunit alpha (Homo sapiens) (UniProt O15111); details: at 1 µM
T1 sequence (whole entry): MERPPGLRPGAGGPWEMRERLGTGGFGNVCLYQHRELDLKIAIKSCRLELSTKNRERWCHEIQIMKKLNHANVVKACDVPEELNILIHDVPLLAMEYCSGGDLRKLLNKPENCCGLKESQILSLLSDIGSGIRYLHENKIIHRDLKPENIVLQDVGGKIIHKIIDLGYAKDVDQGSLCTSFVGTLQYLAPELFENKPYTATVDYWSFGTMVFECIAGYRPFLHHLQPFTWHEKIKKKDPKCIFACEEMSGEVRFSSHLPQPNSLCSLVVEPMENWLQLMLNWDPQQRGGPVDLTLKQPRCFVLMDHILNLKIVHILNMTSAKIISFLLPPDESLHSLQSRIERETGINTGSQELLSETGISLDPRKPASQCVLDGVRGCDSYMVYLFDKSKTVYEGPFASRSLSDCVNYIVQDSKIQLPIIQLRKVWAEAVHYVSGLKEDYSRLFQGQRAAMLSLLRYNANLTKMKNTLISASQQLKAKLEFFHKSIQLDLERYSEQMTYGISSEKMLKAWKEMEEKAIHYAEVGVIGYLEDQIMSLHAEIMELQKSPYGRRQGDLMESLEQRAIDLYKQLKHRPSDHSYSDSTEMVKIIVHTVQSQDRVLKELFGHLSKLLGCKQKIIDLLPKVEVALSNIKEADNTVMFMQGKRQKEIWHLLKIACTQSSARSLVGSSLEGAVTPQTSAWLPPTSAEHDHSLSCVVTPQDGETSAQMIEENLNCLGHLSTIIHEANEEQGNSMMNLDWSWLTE

[2] = biological target: T2, Inhibitor of nuclear factor kappa-B kinase subunit epsilon (Homo sapiens) (UniProt Q14164); details: at 1 µM
T2 sequence (whole entry): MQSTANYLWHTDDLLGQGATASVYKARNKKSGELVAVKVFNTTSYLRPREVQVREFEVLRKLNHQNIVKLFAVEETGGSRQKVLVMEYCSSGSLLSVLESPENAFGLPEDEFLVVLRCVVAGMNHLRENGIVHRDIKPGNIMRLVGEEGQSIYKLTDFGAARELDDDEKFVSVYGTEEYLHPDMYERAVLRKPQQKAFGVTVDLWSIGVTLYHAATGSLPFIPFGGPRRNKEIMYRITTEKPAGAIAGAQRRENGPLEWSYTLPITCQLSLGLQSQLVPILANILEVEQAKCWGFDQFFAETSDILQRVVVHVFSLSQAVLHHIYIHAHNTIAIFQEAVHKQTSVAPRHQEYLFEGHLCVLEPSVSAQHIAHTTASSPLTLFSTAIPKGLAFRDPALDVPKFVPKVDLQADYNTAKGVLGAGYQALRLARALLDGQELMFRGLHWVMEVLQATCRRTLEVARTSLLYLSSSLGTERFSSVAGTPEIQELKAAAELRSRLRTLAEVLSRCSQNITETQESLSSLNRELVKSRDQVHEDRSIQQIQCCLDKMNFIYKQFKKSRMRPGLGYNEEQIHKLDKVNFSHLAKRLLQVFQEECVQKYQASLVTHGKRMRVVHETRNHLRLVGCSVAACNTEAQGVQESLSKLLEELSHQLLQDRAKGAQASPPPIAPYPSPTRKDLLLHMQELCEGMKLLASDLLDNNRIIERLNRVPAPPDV

[3] = biological target: T3, Tyrosine-protein kinase Mer (Homo sapiens) (UniProt Q12866); details: at 10 µM
T3 sequence (whole entry): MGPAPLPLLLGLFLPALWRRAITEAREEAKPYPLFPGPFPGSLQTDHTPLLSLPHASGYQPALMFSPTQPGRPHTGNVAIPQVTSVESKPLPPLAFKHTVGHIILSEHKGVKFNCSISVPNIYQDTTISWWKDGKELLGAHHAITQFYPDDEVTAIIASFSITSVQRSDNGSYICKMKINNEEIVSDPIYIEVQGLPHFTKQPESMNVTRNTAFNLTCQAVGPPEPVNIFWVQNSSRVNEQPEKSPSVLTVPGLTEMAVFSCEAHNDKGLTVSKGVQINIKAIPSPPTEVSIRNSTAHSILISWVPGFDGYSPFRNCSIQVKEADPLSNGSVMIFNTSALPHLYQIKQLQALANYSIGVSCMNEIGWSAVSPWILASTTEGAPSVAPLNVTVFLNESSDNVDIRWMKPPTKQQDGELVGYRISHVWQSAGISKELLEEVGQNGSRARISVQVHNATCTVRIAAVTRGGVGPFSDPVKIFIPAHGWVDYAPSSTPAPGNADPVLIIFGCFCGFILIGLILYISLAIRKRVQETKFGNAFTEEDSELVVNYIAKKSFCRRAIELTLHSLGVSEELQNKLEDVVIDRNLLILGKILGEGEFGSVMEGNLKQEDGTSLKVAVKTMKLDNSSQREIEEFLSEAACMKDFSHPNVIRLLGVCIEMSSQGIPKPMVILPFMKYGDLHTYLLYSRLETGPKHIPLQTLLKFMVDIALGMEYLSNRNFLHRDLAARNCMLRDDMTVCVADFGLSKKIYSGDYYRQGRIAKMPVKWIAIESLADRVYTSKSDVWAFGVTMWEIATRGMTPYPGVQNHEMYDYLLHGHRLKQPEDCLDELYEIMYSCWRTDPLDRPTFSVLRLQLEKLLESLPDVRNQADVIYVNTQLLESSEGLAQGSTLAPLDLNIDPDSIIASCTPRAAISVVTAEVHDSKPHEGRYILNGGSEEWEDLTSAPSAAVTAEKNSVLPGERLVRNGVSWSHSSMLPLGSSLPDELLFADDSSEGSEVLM

| Compound | inhibition [1] | inhibition [2] | inhibition [3] [%] |
| --- | --- | --- | --- |
| CCCNc1cccc(-n2ncc3c(N/N=C/c4ccncc4)ncnc32)c1 | 4% | 9% and 10% | 1 |
| Cc1ccc(C(=O)NC2CC2)cc1-c1ccc2[nH]ncc2c1 | 0% | 1% and -2% | 6 |
| CN(C)c1cc2c(Nc3ccc4nc(Cc5ccccc5)[nH]c4c3)ncnc2cn1 | 2% and 1% | 0% and 6% | 2 |
| Cc1ccc2c(-c3ccnc(Nc4ccc5c(c4)OCCO5)n3)c(-c3ccc(C(F)(F)F)cc3)nn2n1 | 9% and 1% | 0% and -3% | -5 |
| Cc1ccc(Nc2ccnc(Nc3cccc(C(N)=O)c3)n2)cc1O | 2% | 26% and 27% | 93 |
| O=C1Nc2ccc(I)cc2C1=Cc1cc(Br)c(O)c(Br)c1 | 10% and 11% | 3% and 2% | -2 |
| CCN(CC)S(=O)(=O)c1ccc(OC)c(Nc2ncc(-c3ccccc3)o2)c1 | 1% | 2% and 3% | 13 |
| O=C1Nc2ccccc2/C1=C/Nc1ccc(-n2cncn2)cc1 | 4% and 3% | 18% | 10 |
| COc1cc2ncn(-c3cc(O[C@H](C)c4ccccc4Cl)c(C(N)=O)s3)c2cc1OC | -2% and 4% | 3% and 2% | -8 |
| CCS(=O)(=O)c1ccc(OC)c(Nc2ncc(-c3ccccc3Cl)o2)c1 | -3% and 4% | 2% and 1% | 6 |
| COc1ccccc1Nc1ncc(-c2ccccc2)o1 | -1% and 3% | 5% | 3 |
| Cc1nnc(-c2ccc(C)c(-c3ccc(C(=O)NCc4ccc(Cl)cc4)cc3)c2)o1 | 2% and 4% | 2% | 92 |
| Fc1ccc(-c2c(-c3ccncc3)nc3n2CCS3)cc1 | -4% | -1% and 0% | 10 |
| O=C1NC(=O)C(c2ccccc2Cl)=C1Nc1cccc(O)c1 | 1% | 1% and 3% | 18 |
| COc1cccc(COc2cc(-n3cnc4ccccc43)sc2C(N)=O)c1 | 4% and 3% | -1% | 1 |
| N#Cc1ccc(Oc2nccc(-c3c(-c4ccc(F)cc4)ncn3C3CCNCC3)n2)cc1 | -2% and -1% | 2% and 4% | -1 |
| CCOc1ccc2c(-c3ccnc(Nc4cccc(C(F)(F)F)c4)n3)cnn2n1 | 1% | 45% | -2 |
| COc1cc2ncn(-c3cc(OCCc4ccccc4)c(C(N)=O)s3)c2cc1OC | -2% | 10% and 11% | 51 |
| FC(F)(F)c1cccc(-c2nn3ncccc3c2-c2ccnc(Nc3ccc4c(c3)OCCO4)n2)c1 | 1% and 2% | 3% and 0% | -2 |
| CCn1c(-c2nonc2N)nc2cncc(C(=O)NCCNC)c21 | 30% | 13% and 14% | 81 |
| NC(=O)c1cccc(Nc2nccc(Nc3cccc4[nH]ncc34)n2)c1 | -5% | 41% and 42% | 79 |

| Compound | inhibition [1] | inhibition [2] | inhibition [3] [%] |
| --- | --- | --- | --- |
| O=C(O[C@H]1CN[C@H](C#Cc2cc3ncnc(Nc4ccc5c(ccn5Cc5cc(F)ccc5F)c4)c3s2)C1)N1CCOCC1 | -1% | 1% and -4% | 100 |
| N#Cc1c(NC(=O)CN2CCOCC2)sc2c1CCCC2 | 0% and 1% | -2% | -1 |
| CCN(CC)Cc1ccc(Nc2nccc(-c3cnn4ncccc34)n2)cc1 | -1% and -2% | 18% and 19% | 5 |
| COc1ccc(-c2nn3ncccc3c2-c2ccnc(Nc3ccc(Cl)c(C(F)(F)F)c3)n2)cc1 | -2% and 3% | -1% and -2% | 13 |
| COc1cc(N2CCN(C(C)C)CC2)ccc1Nc1nc(Nc2cccc(F)c2C(=O)O)c2cc[nH]c2n1 | 2% and 3% | -1% and 0% | -2 |
| Cc1ccc(NC(=O)c2ccoc2)cc1-c1ccc(C(=O)NCC2CC2)cc1 | 5% and 4% | 1% | -4 |
| CC(=O)Nc1cccc(C#Cc2cncnc2Nc2ccc(OCc3cccc(F)c3)c(Cl)c2)c1 | -6% | -7% and -6% | -1 |
| COc1ccc(-c2cc3c(N)ncnc3o2)cc1 | 2% and 3% | 2% and -2% | 5 |
| CCS(=O)(=O)c1ccc(OC)c(Nc2ncc(-c3cccc(OC)c3)o2)c1 | 1% | 3% | -1 |
| CC1=C(C(=O)Nc2cc(Cl)c3[nH]ncc3c2)C(c2ccc(C(F)(F)F)cc2)CC(=O)N1 (stereo not drawn) | 2% | 1% and 0% | 18 |
| CCn1c(-c2nonc2N)nc2c(C#CC(C)(C)O)nc(O[C@@H](CN)c3ccccc3)cc21 | 17% and 19% | 99% and 98% | -9 |
| CS(=O)(=O)CCNCc1coc(-c2ccc3ncnc(Nc4ccc(OCc5ccccc5)cc4)c3c2)c1 | 2% and -8% | -1% and 0% | 84 |
| CC(=O)NCc1cccc(C#Cc2cncnc2Nc2ccc(OCc3cccc(F)c3)c(Cl)c2)c1 | 1% | -4% | -7 |
| CN(C)CCOc1ccc(-c2nc(-c3ccncc3)c(-c3ccc4c(c3)CC/C4=N\O)[nH]2)cc1 | 2% and -6% | -1% and 0% | 3 |
| CCn1c(-c2nonc2N)nc2c(C#CC(C)(C)O)nc(CN3CCCC3)cc21 | -7% and 2% | 52% and 51% | -6 |
| Cc1cc(-c2ccccn2)cc(C)c1/C=C/c1cncc(-c2nn[nH]n2)c1 | 3% and 1% | -1% and -2% | -7 |
| O=C1Nc2ccc(C(=O)c3ccco3)cc2C1=Cc1cc(Cl)c(O)c(Cl)c1 | 5% and 4% | 92% and 91% | -1 |
| CCn1c(-c2nonc2N)nc2c(C#CC(C)(C)O)nc(OC[C@H](N)c3ccccc3)cc21 | 10% and 11% | 36% and 35% | -2 |
| N#Cc1ccc2c(-c3ccnc(NC4CC4)n3)c(-c3ccc(F)cc3)nn2c1 | 1% and -2% | 1% | 24 |
| CS(=O)(=O)Nc1ccc(-c2ccc3c(NC(=O)C4CC4)n[nH]c3c2)cc1 | 5% and 3% | 3% and 2% | 1 |

Reference: ChEMBL document CHEMBL2007661, “Compounds: GSK PKIS; Assays: UNC Frye lab” (2012)
